Reference: patent US20090312243A1, “TREATMENT OF INFLAMMATORY BOWEL DISEASE (IBD) WITH ANTI-ANGIOGENIC COMPOUNDS” (priority 2005, published 2009)
Entries after “also recorded” stand apart in the source; their conditions may differ.

Key:
[1] = test system: C57BL/10 IL-10-deficient mice; assay: IL-10-deficient mouse colitis model, disease activity index (DAI); assay type: in vivo; conditions: for effect on established colitis (disease activity index): n=12 per group
Description: The DAI was calculated by scoring 1 point for the appearance of each of the following: ruffled fur, occult fecal blood as determined on a Hemoccult Sensa® card (Smith Kline Diagnostics, San Jose, Calif.), rectal prolapse <1 mm, and soft stool. The mice were scored an additional point for diarrhea or severe rectal prolapse >1 mm. The mean with standard error bars of the DAI are plotted for pretreatment and then at the end of each week of treatment (n=12 per group).
The preferred, and widely used, model for testing is the IL-10-deficient (KO) mouse (on a C57BL/10 strain background). As described in the Examples, colonies of C57BL/10 IL-10 KO mice are bred and used. These mice consistently develop colitis at 10-12 weeks of age when transported from the ultra-barrier facility to conventional housing. These mice are used to test the effect of a candidate anti-angiogenic agent on pathogenesis and treatment of established disease.
Colonies of C57BL/10 IL-10-deficient mice were routinely bred at the Case Western Reserve University Animal Research Center for studies of early and late colitis. These mice consistently develop colitis at 10-12 weeks of age when transported from the ultra-barrier facility to conventional housing. These mice were used to test the effect of ATN 161 (Ac-PHSCN—NH2) on both the development and treatment of established disease.
ATN-161 had no effect on the development of colitis in this model when treatment was initiated at the time that the mice were moved to conventional housing. […] A scrambled peptide version of ATN-161 (ATN-163; Ac-HSPNC—NH2) was used as a control and had no effect on established colitis in this model. ATN-163 and vehicle controls were indistinguishable in these studies (data not shown).

[2] = test system: C57BL/10 IL-10-deficient mice; assay: Histologic grading for colitis of colon at Week 6; assay type: in vivo, mouse; conditions: end of Week 6; ATN-161 versus ATN-163 treated group
Description: FIG. 2 is a graph summarizing the histologic grading for colitis at Week 6. Grading of intestinal inflammation was determined in a blinded fashion by three readers: no inflammation (0); modest numbers of infiltrating cells in the lamina propria (1); infiltration of mononuclear cells leading to separation of crypts and mild mucosal hyperplasia (2); massive infiltration with inflammatory cells accompanied by disrupted mucosal architecture, loss of goblet cells, and marked mucosal hyperplasia (3); all of the above plus crypt abscesses or ulceration (4).
Animals were euthanized at the end of Week 6 and the colon removed for histologic analysis.

IL-6 [3] = assay: IL-6 in supernatants of cultured colon fragments from treated mice (ELISA); assay type: in vivo, mouse; conditions: 48 hours culture; versus ATN-163 treated controls
Description: (§1) FIGS. 3A and 3B are graphs showing that colon fragments from ATN-161 treated mice expressed lower levels of IL-12 and IL-6. Fragments of colon from mice treated with ATN-161 or ATN-163 were cultured in RPMI media +2% fetal bovine serum and 2.5% PSF (antibiotic-antimycotic). After 48 hours, supernatants were harvested and kept frozen at −80 C. FIG. 3A: IL-12(p40) was analyzed using an ELISA in which plates had been coated with the monoclonal antibody C15.6. FIG. 3B: IL-6 was analyzed using a commercially available ELISA kit specific for mouse IL-6 (R&D Systems, Minneapolis, Minn.).
(§2) Biopsies were also cultured in vitro and the supernatants analyzed for IL-6 and IL-12 expression as previously described (Spencer D M et al., 2002, Gastroenterology 122:94-105). IL-6 and IL-12 are inflammatory cytokines that have been correlated with the pathogenesis of colitis (Mahida Y R, 2000, Inflamm Bowel Dis 6:21-33).

IL-12(p40) = assay: IL-12 in supernatants of cultured colon fragments from treated mice (ELISA); assay type: in vivo, mouse; conditions: 48 hours culture; versus ATN-163 treated controls
Description: as §1, §2

IL-6 [4] = assay: IL-6 production in vitro by LPMC extracts and splenocytes; assay type: cell-based; conditions: lamina propria mononuclear cell (LPMC) extracts and splenocytes
Description: (§3) The effect of ATN-161 on IL-6 and IL-12 expression was also evaluated in vitro using lamina propria mononuclear cell (LPMC) extracts and splenocytes.

IL-12 = IL-12 production in vitro by LPMC extracts and splenocytes; assay type: cell-based; conditions: lamina propria mononuclear cell (LPMC) extracts and splenocytes
Description: as §3

[5] = test system: C57BL/10 IL-10-deficient mice; assay: Microvessel density in colon sections by anti-CD31 immunostaining; assay type: in vivo, mouse; conditions: zinc fixed colon sections
Description: FIG. 4 is a graph showing an analysis of microvessel density using anti-CD31 immunostaining. Immunostaining was performed using the mouse CD31 specific mAb MEC 13.3 (Becton-Dickinson, San Diego, Calif.). Morphometric analysis was carried out using an international consensus for the quantification of angiogenesis (Vermeulen P B et al., Eur J Cancer 32A:2474-84; Eur J Cancer 38:1564-15). In particular stained colonic sections were scanned at low power (40×) to detect the most vascularized area, after which at least 5 microphotographs at 200× magnification were taken in the mucosa and in the submucosa. The number of vessels/field (mean vascular density) was performed using Image Pro Plus Software (Media Cybernetics, Silver Spring, Md.).
Microvessel density as a measure of angiogenesis was determined in zinc fixed colon sections.

[6] = test system: human colon cancer cells (HT29); conditions: HT29 do not express integrin α5β1; cited from earlier work
cell adhesion = conditions: cited from earlier work
tumor angiogenesis = conditions: cited from earlier work

Ac-PHSCN—NH2 (Ac-PHSCN-NH2) [ATN-161]
treatment time after which the reduction of colitis was observed ([1]; mice with established disease): approximately four
effect on established colitis (disease activity index) ([1]; mice with established disease): consistently reduced colitis; also recorded: reduces established colitis
effect on the development of colitis ([1]; treatment initiated at the time the mice were moved to conventional housing): no effect
histologic score [2]: significantly lower
IL-6 level in colon fragment organ culture (IL-6 [3]): significantly lower levels
IL-12 level in colon fragment organ culture (IL-12(p40)): significantly lower levels
effect on IL-6 production (IL-6 [4]): no effect
effect on IL-12 production (IL-12): no effect
reduction of microvessels versus ATN-163 treated controls [5]: approximately 40%
in vivo growth of xenografted HT29 cells [6]: significantly reduced
effect on cell adhesion (cell adhesion): does not affect cell adhesion
effect on efficacy of 5-fluorouracil (tumor angiogenesis; combination with 5-fluorouracil): enhance the efficacy
effect on tumor angiogenesis (tumor angiogenesis; in vivo): inhibited tumor angiogenesis

Ac-HSPNC—NH2 (Ac-HSPNC-NH2) [ATN-163, reference compound]
effect on established colitis (disease activity index) ([1]; mice with established disease): no effect
